# Results reported in ChEMBL document CHEMBL5303573, “Mapping human microbiome drug metabolism by gut bacteria and their genes” (Nature, 2019).
# Key:
# [1] = The drug is tested on Clostridium symbiosum strain: ATCC14940 for biotransformation. The drug concentrations were measured before and after a 12-h incubation by liquid-chromatography-coupled mass spectrometry (LC–MS); settings: 2 µM
# [2] = The drug is tested on Bifidobacterium ruminantium strain: fecal isolate for biotransformation. The drug concentrations were measured before and after a 12-h incubation by liquid-chromatography-coupled mass spectrometry (LC–MS); settings: 2 µM
# [3] = The drug is tested on Bacteroides sp. WH2 strain: WH2 for biotransformation. The drug concentrations were measured before and after a 12-h incubation by liquid-chromatography-coupled mass spectrometry (LC–MS); settings: bacteroides sp. wh2, 12 h, 2 µM
# [4] = bifidobacterium adolescentis, 12 h, 2 µM
# Description: The drug is tested on Bifidobacterium adolescentis strain: ATCC 15703 for biotransformation. The drug concentrations were measured before and after a 12-h incubation by liquid-chromatography-coupled mass spectrometry (LC–MS)
# [5] = The drug is tested on Eubacterium ventriosum strain: ATCC27560 for biotransformation. The drug concentrations were measured before and after a 12-h incubation by liquid-chromatography-coupled mass spectrometry (LC–MS); assay type: ADME; parameters: dose 2 uM, timepoint 0 vs 12 hours; settings: 2 µM
# [6] = The drug is tested on Ruminococcus gnavus strain: ATCC29149 for biotransformation. The drug concentrations were measured before and after a 12-h incubation by liquid-chromatography-coupled mass spectrometry (LC–MS); settings: mediterraneibacter gnavus, 2 µM
# [7] = The drug is tested on Bacteroides xylanisolvens strain: DSM18836 for biotransformation. The drug concentrations were measured before and after a 12-h incubation by liquid-chromatography-coupled mass spectrometry (LC–MS); settings: 2 µM
# [8] = The drug is tested on Dorea formicigenerans strain: ATCC27755 for biotransformation. The drug concentrations were measured before and after a 12-h incubation by liquid-chromatography-coupled mass spectrometry (LC–MS); settings: 2 µM
# [9] = The drug is tested on Coprococcus comes strain: ATCC27758 for biotransformation. The drug concentrations were measured before and after a 12-h incubation by liquid-chromatography-coupled mass spectrometry (LC–MS); assay type: ADME; parameters: dose 2 uM, timepoint 0 vs 12 hours; settings: 2 µM
# [10] = segatella copri, 12 h, 2 µM
# Description: The drug is tested on Prevotella copri strain: DSM18205 for biotransformation. The drug concentrations were measured before and after a 12-h incubation by liquid-chromatography-coupled mass spectrometry (LC–MS)
# [11] = The drug is tested on Providencia stuartii strain: ATCC25827 for biotransformation. The drug concentrations were measured before and after a 12-h incubation by liquid-chromatography-coupled mass spectrometry (LC–MS); settings: 2 µM
# [12] = bacteroides intestinalis, 12 h, 2 µM
# Description: The drug is tested on Bacteroides intestinalis strain: DSM17393 for biotransformation. The drug concentrations were measured before and after a 12-h incubation by liquid-chromatography-coupled mass spectrometry (LC–MS)
# [13] = limosilactobacillus reuteri cf48-3a, 12 h, 2 µM
# Description: The drug is tested on Lactobacillus reuteri CF48-3A strain: BEI HM-102 for biotransformation. The drug concentrations were measured before and after a 12-h incubation by liquid-chromatography-coupled mass spectrometry (LC–MS)
# [14] = enterocloster bolteae, 12 h, 2 µM
# Description: The drug is tested on Clostridium bolteae strain: ATCCBAA-613 for biotransformation. The drug concentrations were measured before and after a 12-h incubation by liquid-chromatography-coupled mass spectrometry (LC–MS)
# [15] = The drug is tested on Enterobacter cancerogenus strain: ATCC35316 for biotransformation. The drug concentrations were measured before and after a 12-h incubation by liquid-chromatography-coupled mass spectrometry (LC–MS); settings: 2 µM
# [16] = The drug is tested on Blautia luti strain: DSM14534 for biotransformation. The drug concentrations were measured before and after a 12-h incubation by liquid-chromatography-coupled mass spectrometry (LC–MS); assay type: ADME; parameters: dose 2 uM, timepoint 0 vs 12 hours; settings: 2 µM
# [17] = The drug is tested on Bacteroides ovatus strain: ATCC8483 for biotransformation. The drug concentrations were measured before and after a 12-h incubation by liquid-chromatography-coupled mass spectrometry (LC–MS); settings: 2 µM
# [18] = The drug is tested on Subdoligranulum variabile strain: DSM15176 for biotransformation. The drug concentrations were measured before and after a 12-h incubation by liquid-chromatography-coupled mass spectrometry (LC–MS); settings: 2 µM
# [19] = The drug is tested on Eubacterium rectale strain: ATCC33656 for biotransformation. The drug concentrations were measured before and after a 12-h incubation by liquid-chromatography-coupled mass spectrometry (LC–MS); settings: agathobacter rectalis, 2 µM
Compound,Bacterial Biotransformation [1],Bacterial Biotransformation [2],Bacterial Biotransformation [3],Bacterial Biotransformation [4],Bacterial Biotransformation [5],Bacterial Biotransformation [6],Bacterial Biotransformation [7],Bacterial Biotransformation [8],Bacterial Biotransformation [9],Bacterial Biotransformation [10],Bacterial Biotransformation [11],Bacterial Biotransformation [12],Bacterial Biotransformation [13],Bacterial Biotransformation [14],Bacterial Biotransformation [15],Bacterial Biotransformation [16],Bacterial Biotransformation [17],Bacterial Biotransformation [18],Bacterial Biotransformation [19]
CCN(CC)CCNC(C(=O)OCCC(C)C)c1ccccc1.Cl.Cl (stereo not drawn),Compound NOT metabolized,Compound NOT metabolized,Compound NOT metabolized,Compound NOT metabolized,Compound NOT metabolized,Compound NOT metabolized,Compound NOT metabolized,Compound NOT metabolized,Compound NOT metabolized,Compound NOT metabolized,Compound NOT metabolized,Compound NOT metabolized,Compound NOT metabolized,Compound NOT metabolized,Compound NOT metabolized,Compound NOT metabolized,Compound NOT metabolized,Compound metabolized,–
COc1cc2nc(N(C)CCCNC(=O)C3CCCO3)nc(N)c2cc1OC (stereo not drawn) [ALFUZOSIN],Compound NOT metabolized,Compound NOT metabolized,Compound NOT metabolized,Compound NOT metabolized,Compound NOT metabolized,Compound NOT metabolized,Compound NOT metabolized,Compound NOT metabolized,Compound NOT metabolized,Compound NOT metabolized,Compound NOT metabolized,Compound NOT metabolized,Compound NOT metabolized,Compound NOT metabolized,–,Compound NOT metabolized,Compound NOT metabolized,Compound NOT metabolized,Compound NOT metabolized
O=P(O)(O)O.c1ccc(CN(CC2=NCCN2)c2ccccc2)cc1 [ANTAZOLINE PHOSPHATE],Compound NOT metabolized,Compound NOT metabolized,Compound NOT metabolized,Compound NOT metabolized,Compound NOT metabolized,Compound NOT metabolized,Compound NOT metabolized,Compound NOT metabolized,Compound NOT metabolized,Compound NOT metabolized,Compound NOT metabolized,Compound NOT metabolized,Compound NOT metabolized,Compound NOT metabolized,–,Compound NOT metabolized,Compound NOT metabolized,Compound NOT metabolized,Compound NOT metabolized
O=C(NCc1ccccc1)OCCO [BURAMATE],Compound NOT metabolized,Compound NOT metabolized,Compound NOT metabolized,Compound NOT metabolized,Compound NOT metabolized,Compound NOT metabolized,Compound NOT metabolized,Compound NOT metabolized,Compound NOT metabolized,Compound NOT metabolized,–,Compound NOT metabolized,Compound NOT metabolized,Compound NOT metabolized,Compound NOT metabolized,Compound NOT metabolized,Compound NOT metabolized,Compound NOT metabolized,Compound NOT metabolized
Br.CN1CCC[C@@H]1Cc1c[nH]c2ccc(CCS(=O)(=O)c3ccccc3)cc12 [ELETRIPTAN HYDROBROMIDE],Compound NOT metabolized,Compound NOT metabolized,Compound NOT metabolized,Compound NOT metabolized,Compound NOT metabolized,Compound NOT metabolized,Compound NOT metabolized,Compound NOT metabolized,Compound NOT metabolized,Compound NOT metabolized,Compound NOT metabolized,Compound NOT metabolized,Compound NOT metabolized,Compound NOT metabolized,–,Compound NOT metabolized,Compound NOT metabolized,Compound NOT metabolized,Compound NOT metabolized
CN[C@H]1CC[C@@H](c2ccc(Cl)c(Cl)c2)c2ccccc21 [SERTRALINE],Compound NOT metabolized,Compound NOT metabolized,Compound NOT metabolized,Compound NOT metabolized,–,Compound NOT metabolized,–,Compound NOT metabolized,–,Compound NOT metabolized,–,Compound NOT metabolized,Compound NOT metabolized,–,Compound NOT metabolized,Compound NOT metabolized,Compound NOT metabolized,Compound NOT metabolized,Compound NOT metabolized
Nc1c2c(nc3ccccc13)CCCC2 [TACRINE],Compound NOT metabolized,Compound NOT metabolized,Compound NOT metabolized,Compound NOT metabolized,Compound NOT metabolized,Compound NOT metabolized,Compound NOT metabolized,Compound NOT metabolized,Compound NOT metabolized,Compound NOT metabolized,Compound NOT metabolized,Compound NOT metabolized,Compound NOT metabolized,Compound NOT metabolized,Compound NOT metabolized,Compound NOT metabolized,–,Compound NOT metabolized,Compound NOT metabolized
CC(=O)CC(c1ccccc1)c1c(O)c2ccccc2oc1=O (stereo not drawn) [WARFARIN],Compound NOT metabolized,–,Compound NOT metabolized,Compound NOT metabolized,Compound NOT metabolized,Compound NOT metabolized,–,Compound NOT metabolized,Compound NOT metabolized,–,Compound NOT metabolized,Compound NOT metabolized,Compound NOT metabolized,Compound NOT metabolized,Compound NOT metabolized,Compound NOT metabolized,Compound NOT metabolized,Compound NOT metabolized,Compound NOT metabolized
Cc1cn([C@H]2C[C@H](N=[N+]=[N-])[C@@H](CO)O2)c(=O)[nH]c1=O [ZIDOVUDINE],Compound NOT metabolized,–,Compound NOT metabolized,Compound NOT metabolized,–,–,Compound metabolized,–,Compound metabolized,Compound NOT metabolized,Compound NOT metabolized,Compound NOT metabolized,Compound NOT metabolized,Compound NOT metabolized,Compound NOT metabolized,Compound NOT metabolized,Compound NOT metabolized,Compound NOT metabolized,Compound NOT metabolized
